Data reported in patent US6497896B2, “Method for administering camptothecins via injection of a pharmaceutical composition comprising microdroplets containing a camptothecin” (priority 2001, dated 2002).
Where two headings read alike, the source gives them in different places.

Tests used:
[1] = tested on: A375 human melanoma xenograft; conditions: for survivors (FIG. 10 comparison): I.P.
Text: The following study evaluates two intravenous formulations according to the present invention against human tumor xenografts in athymic nude mice. […] Examples 1 and 2 describe the compositions of IDD-P (FIG. 1; formulation 1-F) and IDD-D respectively.
Husbandry: Female nude mice were 16 weeks of age (NCR-nufBr; Taconic Farms) for the A375 study. The mice were fed ad libitum water (reverse osmosis, 1 ppm C1) and autoclaved Prolab NIH-31 M/5% Rodent Diet consisting of 18% protein, 5% fat, 6% fiber, and 8% ash. Mice were housed in static microisolators on a 12-hour light cycle at 21-22° C. (70-72° F.) and 40%-60% humidity. The animal care and use program is AAALAC International accredited and specifically follows and complies with the recommendation of the National Research Council's Guidefor the Care and Use of Laboratory Animals.
Tumor Implantation: An A375 melanoma fragment (1 mm 3) was implanted subcutaneously in the flank of each nude mouse. When the tumors reached the 60-112 mg size range, the mice were sorted into treatment groups (on Day 1) such that the group mean tumor sizes ranged from 71.3 mg-72.5 mg. Estimated tumor weight was calculated using the formula: [formula]
CAMPTOSAR®, DTIC®, and HYCAMTIN® were obtained as the marketed drugs and solutions were prepared fresh on the day of dosing. CAMPTOSAR® (irinotecan, Phannacia & Upjohn Company, 20 mg/ml) and DTIC® (dacarbazine, Bayer Corporation, 20 mg/ml) were diluted with D5W. HYCAMTIN® (topotecan, SmithKlein Beecham) was reconstituted with water at 1 mg/ml.
Treatments: Volumes of 0.20 ml per 20-g mouse, body-weight adjusted, were administered once daily. Tumor-bearing athymic nude mice were matched on Day 1 into 13 groups of ten animals and drug administration was initiated. […] Three reference drugs were administered I.P.: CAMPTOSAR® was given in three doses at weekly intervals (qwk×3); HYCAMTIN® was given in four doses at four-day intervals (q4d×4); and DTIC® was given in five consecutive daily doses (qd×5). The tumor growth control group for these reference treatments received no treatment (Group 1).
Tumor Growth Endpoint: The tumor growth delay (TGD) method was used to assess efficacy. Tumor dimensions were measured twice weekly until the experiment was terminated on Day 62. Each animal was euthanized as a “cancer death” when its A375 melanoma reached a size of 2.0 g. Mean Day of Survival (MDS) values for all groups were based on the calculated day of death of each mouse, which is given by the formula: [formula]
TGD values, which represent treatment-effected extensions of survival time, were calculated from MDStreated−MDScontrol, the difference in MDS value for a given treatment group and the MDS value for A375 melanoma-bearing mice that received no treatment or the corresponding vehicle.
At the termination of the experiment on Day 62, treatment responses in survivors were classified as either complete tumor regression (CR), partial tumor regression (PR), or stable/progressive disease (SD/PD). A CR response indicates the absence of measurable tumor. In a PR response, the final tumor weight is lower than on Day 1 but larger than 0 mg. In a SD/PD response, mice survived to Day 62 with a progressively growing or stable tumor size that had not reached the 2.0-g endpoint.
Evaluation of Toxicity: The maximum tolerated dose (MTD), as defined by the NCI, is the highest dose at which no more than 10% of the animals die and the group mean body-weight loss is no more than 20%. Body weights were measured daily for four or five days and then twice weekly thereafter until the experiments were terminated on Day 62 of the study. The animals were also examined frequently for clinical signs of any adverse, drug-related side effects. Because mice are not tagged for MTD studies, only the mean group body weights recorded in the appended raw data are significant in those studies.

[2] = cited from earlier work
[3] = whole blood; cited from earlier work
[4] = target: human serum albumin (HSA) (Homo sapiens, UniProt P02768); conditions: PBS at pH 7.4; cited from earlier work
[5] = human plasma, pH 7.4, 37° C.; cited from earlier work
[6] = in 3% DMA 2.0 mg/kg p.o., q3d×4
[7] = in 3% DMA 4.0 mg/kg p.o., q3d×4

Chain of human serum albumin (HSA) (P02768 25-609): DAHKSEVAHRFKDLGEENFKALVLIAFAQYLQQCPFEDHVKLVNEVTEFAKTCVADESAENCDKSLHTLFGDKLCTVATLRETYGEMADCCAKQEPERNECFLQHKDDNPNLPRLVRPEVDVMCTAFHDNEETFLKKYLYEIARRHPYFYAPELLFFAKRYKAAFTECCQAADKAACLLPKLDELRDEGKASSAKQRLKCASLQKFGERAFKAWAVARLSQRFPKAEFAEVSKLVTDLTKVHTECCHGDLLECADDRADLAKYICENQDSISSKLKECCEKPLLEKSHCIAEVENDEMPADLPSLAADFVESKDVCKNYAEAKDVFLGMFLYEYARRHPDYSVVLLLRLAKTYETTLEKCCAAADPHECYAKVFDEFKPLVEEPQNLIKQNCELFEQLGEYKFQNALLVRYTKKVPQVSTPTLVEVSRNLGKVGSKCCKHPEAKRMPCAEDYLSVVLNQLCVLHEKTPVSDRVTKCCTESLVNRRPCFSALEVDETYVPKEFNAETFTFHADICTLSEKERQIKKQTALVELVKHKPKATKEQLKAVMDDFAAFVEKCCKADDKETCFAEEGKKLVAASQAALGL

## CC[C@@]1(O)C(=O)OCc2c1cc1n(c2=O)Cc2cc3c([N+](=O)[O-])cccc3nc2-1 [9-nitro-camptothecin, 9-nitro-20(S)-camptothecin]
[1]; 2 mg/kg p.o., q3d×4
  CR responses, share of mice: 40%
[1]; 4 mg/kg p.o., q3d×4
  CR responses, share of mice: 40%
[1]; [6]
  62-day survival rate: 70%
  62-day survivors (number of 10 mice): seven
  CR responses on Day 62: 4
  PR responses on Day 62: 1
  SD/PD responses on Day 62: 2
  tolerability: well tolerated
[1]; in 3% DMA 2.0 mg/kg p.o., q3d×4, Group 13 (n=3)
  mean day of survival (MDS): 47.6 days
[1]; in 3% DMA 2.0 mg/kg p.o., q3d×4, vs vehicle control Group 4
  tumor growth delay (TGD): 21.6 days
[1]; [7]
  62-day survival rate: 70%
  62-day survivors (number of 10 mice): seven
  CR responses on Day 62: 4
  SD/PD responses on Day 62: 3
  tolerability: well tolerated
[1]; in 3% DMA 4.0 mg/kg p.o., q3d×4, Group 12 (n=3)
  mean day of survival (MDS): 45.3 days
[1]; in 3% DMA 4.0 mg/kg p.o., q3d×4, vs vehicle control Group 4
  tumor growth delay (TGD): 19.3 days

## CCc1c2c(nc3ccc(OC(=O)N4CCC(N5CCCCC5)CC4)cc13)-c1cc3c(c(=O)n1C2)COC(=O)[C@]3(O)CC [CAMPTOSAR®, irinotecan]
[1]; 100 mg/kg I.P., qwk×3
  62-day survivors (number of 10 mice): one
[1]; 100 mg/kg I.P., qwk×3, Group 5 (n=9)
  mean day of survival (MDS): 47.3 days
[1]; 100 mg/kg I.P., qwk×3, vs untreated Group 1
  tumor growth delay (TGD): 17 days
[1]; optimal regimen (100 mg/kg qwk×3)
  survivors (FIG. 10 comparison): 0%

## CN(C)/N=N/c1[nH]cnc1C(N)=O [DTIC®, dacarbazine]
[1]; 150 mg/kg I.P., qd×5, Group 7 (n=8)
  mean day of survival (MDS): 37.6 days
[1]; 150 mg/kg I.P., qd×5, vs untreated Group 1, not statistically significant
  tumor growth delay (TGD): 7.3 days
[1]; optimal regimen (150 mg/kg qd×5)
  survivors (FIG. 10 comparison): 10%

## CC[C@@]1(O)C(=O)OCc2c1cc1n(c2=O)Cc2cc3c(CN(C)C)c(O)ccc3nc2-1 [HYCAMTIN®, topotecan]
[1]; 10 mg/kg I.P., q4d×4
  62-day survivors (number of 10 mice): one
[1]; 10 mg/kg I.P., q4d×4, Group 6 (n=9)
  mean day of survival (MDS): 46.7 days
[1]; 10 mg/kg I.P., q4d×4, vs untreated Group 1
  tumor growth delay (TGD): 16.4 days
[1]; optimal regimen (10 mg/kg q4d×4)
  survivors (FIG. 10 comparison): 0%

## CC[C@@](O)(C(=O)[O-])c1cc2n(c(=O)c1CO)Cc1cc3ccccc3nc1-2.[Na+] [Sodium camptothecin]
[2]; administered via i.v.
  side effects: unpredictable side effects such as myelosuppression and hemorrhagic cystitis
[2]; solubilized by sodium hydroxide in water, early 70's
  antitumor activity in clinical trials: antitumor activity

## CC[C@@]1(O)C(=O)OCc2c1cc1n(c2=O)Cc2cc3ccccc3nc2-1 [camptothecin, 20(S)-camptothecin]
[3]
  equilibrium α-hydroxy lactone concentration: 5.3%
  half-life of lactone: 22 min
[4]
  affinity of HSA for carboxylate form versus α-hydroxy lactone form: 150 fold
[5]
  % α-hydroxy lactone at equilibrium: 0.2%
  half-life of lactone ring opening: 11 min
